Laboratory results published in ChEMBL document CHEMBL1201861, “Genomics of Drug Sensitity in Cancer screening data, Wellcome Trust Sanger Institute”.

Test system: NCI-H2405;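 note: growth inhibition of the human cell line, read out with a cell viability assay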
Assay: cells
Type: functional, cell-based, Homo sapiens
Conditions: Homo sapiens, NCI-H2405
Description: SANGER: Inhibition of human NCI-H2405 cell growth in a cell viability assay.

SMILES | IC50 [µM]
CC(C)CCN1c2nc(Nc3cc(F)c(O)c(F)c3)ncc2N(C)C(=O)C1C (stereo not drawn) | > 5

Test system: NCI-H1703;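 note: growth inhibition of NCI-H1703 cells, read out via a cell viability assay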
Assay: cells
Type: functional, cell-based, Homo sapiens
Conditions: Homo sapiens, NCI-H1703
Description: SANGER: Inhibition of human NCI-H1703 cell growth in a cell viability assay.

SMILES | IC50 [µM]
CC(C)CCN1c2nc(Nc3cc(F)c(O)c(F)c3)ncc2N(C)C(=O)C1C (stereo not drawn) | > 5

Test system: KYSE-150 cell line;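 note: growth inhibition of human KYSE-150 cells, read out with a cell viability assay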
Assay: cells
Type: functional, cell-based, Homo sapiens
Conditions: Homo sapiens, KYSE-150
Description: SANGER: Inhibition of human KYSE-150 cell growth in a cell viability assay.

SMILES | IC50 [µM]
CC(C)CCN1c2nc(Nc3cc(F)c(O)c(F)c3)ncc2N(C)C(=O)C1C (stereo not drawn) | 2.15

Test system: ZR-75-30;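 note: growth inhibition of ZR-75-30 cells, measured with a cell viability readout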
Assay: cells
Type: functional, cell-based, Homo sapiens
Conditions: Homo sapiens, ZR-75-30
Description: SANGER: Inhibition of human ZR-75-30 cell growth in a cell viability assay.

SMILES | IC50 [µM]
CC(C)CCN1c2nc(Nc3cc(F)c(O)c(F)c3)ncc2N(C)C(=O)C1C (stereo not drawn) | > 5

Test system: SAOS-2;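 note: growth inhibition of human Saos-2 cells determined by a cell viability assay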
Assay: cells
Type: functional, cell-based, Homo sapiens
Conditions: Homo sapiens, SAOS-2
Description: SANGER: Inhibition of human Saos-2 cell growth in a cell viability assay.

SMILES | IC50 [µM]
CC(C)CCN1c2nc(Nc3cc(F)c(O)c(F)c3)ncc2N(C)C(=O)C1C (stereo not drawn) | > 5

Test system: RD
Assay: cells
Type: functional, cell-based, Homo sapiens
Conditions: Homo sapiens, RD
Description: SANGER: Inhibition of human RD cell growth in a cell viability assay.

SMILES | IC50 [µM]
CC(C)CCN1c2nc(Nc3cc(F)c(O)c(F)c3)ncc2N(C)C(=O)C1C (stereo not drawn) | 3.43

Test system: HMV-2 cell line;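 note: growth inhibition of HMV-II cells, read out with a cell viability assay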
Assay: cells
Type: functional, cell-based, Homo sapiens
Conditions: Homo sapiens, HMV-2
Description: SANGER: Inhibition of human HMV-II cell growth in a cell viability assay.

SMILES | IC50 [µM]
CC(C)CCN1c2nc(Nc3cc(F)c(O)c(F)c3)ncc2N(C)C(=O)C1C (stereo not drawn) | 2.17

Test system: SCC-4;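 note: growth inhibition of human SCC-4 cells, read out as cell viability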
Assay: cells
Type: functional, cell-based, Homo sapiens
Conditions: Homo sapiens, SCC-4
Description: SANGER: Inhibition of human SCC-4 cell growth in a cell viability assay.

SMILES | IC50 [µM]
CC(C)CCN1c2nc(Nc3cc(F)c(O)c(F)c3)ncc2N(C)C(=O)C1C (stereo not drawn) | 3.09

Test system: KP-N-YN;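 note: growth inhibition of KP-N-YN cells, read out with a cell viability assay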
Assay: cells
Type: functional, cell-based, Homo sapiens
Conditions: Homo sapiens, KP-N-YN
Description: SANGER: Inhibition of human KP-N-YN cell growth in a cell viability assay.

SMILES | IC50 [µM]
CC(C)CCN1c2nc(Nc3cc(F)c(O)c(F)c3)ncc2N(C)C(=O)C1C (stereo not drawn) | > 5

Test system: SW1417;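 note: growth inhibition of human SW1417 cells, read out with a cell viability assay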
Assay: cells
Type: functional, cell-based, Homo sapiens
Conditions: Homo sapiens, SW1417
Description: SANGER: Inhibition of human SW1417 cell growth in a cell viability assay.

SMILES | IC50 [µM]
CC(C)CCN1c2nc(Nc3cc(F)c(O)c(F)c3)ncc2N(C)C(=O)C1C (stereo not drawn) | > 5

Test system: IGR-1;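 note: growth inhibition of human IGR-1 cells, read out with a cell viability assay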
Assay: cells
Type: functional, cell-based, Homo sapiens
Conditions: Homo sapiens, IGR-1
Description: SANGER: Inhibition of human IGR-1 cell growth in a cell viability assay.

SMILES | IC50 [µM]
CC(C)CCN1c2nc(Nc3cc(F)c(O)c(F)c3)ncc2N(C)C(=O)C1C (stereo not drawn) | 4.1

Test system: Detroit 562;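 note: growth inhibition of human Detroit 562 cells, read out by a cell viability assay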
Assay: cells
Type: functional, cell-based, Homo sapiens
Conditions: Homo sapiens, Detroit 562
Description: SANGER: Inhibition of human Detroit562 cell growth in a cell viability assay.

SMILES | IC50 [µM]
CC(C)CCN1c2nc(Nc3cc(F)c(O)c(F)c3)ncc2N(C)C(=O)C1C (stereo not drawn) | > 5

Test system: NCI-H2452;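 note: growth inhibition of NCI-H2452 cells, read out with a cell viability assay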
Assay: cells
Type: functional, cell-based, Homo sapiens
Conditions: Homo sapiens, NCI-H2452
Description: SANGER: Inhibition of human NCI-H2452 cell growth in a cell viability assay.

SMILES | IC50 [µM]
CC(C)CCN1c2nc(Nc3cc(F)c(O)c(F)c3)ncc2N(C)C(=O)C1C (stereo not drawn) | > 5

Test system: CAKI-1;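 note: growth inhibition of CAKI-1 cells, measured by a cell viability assay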
Assay: cells
Type: functional, cell-based, Homo sapiens
Conditions: Homo sapiens, CAKI-1
Description: SANGER: Inhibition of human CAKI-1 cell growth in a cell viability assay.

SMILES | IC50 [µM]
CC(C)CCN1c2nc(Nc3cc(F)c(O)c(F)c3)ncc2N(C)C(=O)C1C (stereo not drawn) | > 5

Test system: RCM-1;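 note: growth inhibition of the RCM-1 line, determined with a cell viability readout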
Assay: cells
Type: functional, cell-based, Homo sapiens
Conditions: Homo sapiens, RCM-1
Description: SANGER: Inhibition of human RCM-1 cell growth in a cell viability assay.

SMILES | IC50 [µM]
CC(C)CCN1c2nc(Nc3cc(F)c(O)c(F)c3)ncc2N(C)C(=O)C1C (stereo not drawn) | > 5

Test system: KNS-62;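 note: inhibition of cell growth, read out with a cell viability assay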
Assay: cells
Type: functional, cell-based, Homo sapiens
Conditions: Homo sapiens, KNS-62
Description: SANGER: Inhibition of human KNS-62 cell growth in a cell viability assay.

SMILES | IC50 [µM]
CC(C)CCN1c2nc(Nc3cc(F)c(O)c(F)c3)ncc2N(C)C(=O)C1C (stereo not drawn) | > 5

Test system: Ca-Ski;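 note: cell viability assay measuring inhibition of Ca-Ski cell growth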
Assay: cells
Type: functional, cell-based, Homo sapiens
Conditions: Homo sapiens, Ca-Ski
Description: SANGER: Inhibition of human Ca-Ski cell growth in a cell viability assay.

SMILES | IC50 [µM]
CC(C)CCN1c2nc(Nc3cc(F)c(O)c(F)c3)ncc2N(C)C(=O)C1C (stereo not drawn) | 3.48

Test system: HOP-92;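 note: cell viability readout, with IC50 reflecting inhibition of HOP-92 cell growth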
Assay: cells
Type: functional, cell-based, Homo sapiens
Conditions: Homo sapiens, HOP-92
Description: SANGER: Inhibition of human HOP-92 cell growth in a cell viability assay.

SMILES | IC50 [µM]
CC(C)CCN1c2nc(Nc3cc(F)c(O)c(F)c3)ncc2N(C)C(=O)C1C (stereo not drawn) | > 5

Test system: NCI-H2170;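 note: cell viability assay measuring growth inhibition of human NCI-H2170 cancer cells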
Assay: cells
Type: functional, cell-based, Homo sapiens
Conditions: Homo sapiens, NCI-H2170
Description: SANGER: Inhibition of human NCI-H2170 cell growth in a cell viability assay.

SMILES | IC50 [µM]
CC(C)CCN1c2nc(Nc3cc(F)c(O)c(F)c3)ncc2N(C)C(=O)C1C (stereo not drawn) | > 5

Test system: SW-620;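 note: growth inhibition of human SW-620 cells, measured by a cell viability assay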
Assay: cells
Type: functional, cell-based, Homo sapiens
Conditions: Homo sapiens, SW-620
Description: SANGER: Inhibition of human SW620 cell growth in a cell viability assay.

SMILES | IC50 [µM]
CC(C)CCN1c2nc(Nc3cc(F)c(O)c(F)c3)ncc2N(C)C(=O)C1C (stereo not drawn) | > 5

Test system: NY
Assay: cells
Type: functional, cell-based, Homo sapiens
Conditions: Homo sapiens, NY
Description: SANGER: Inhibition of human NY cell growth in a cell viability assay.

SMILES | IC50 [µM]
CC(C)CCN1c2nc(Nc3cc(F)c(O)c(F)c3)ncc2N(C)C(=O)C1C (stereo not drawn) | > 5

Test system: MEL-JUSO;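 note: growth inhibition of human MEL-JUSO cells, read out with a cell viability assay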
Assay: cells
Type: functional, cell-based, Homo sapiens
Conditions: Homo sapiens, MEL-JUSO
Description: SANGER: Inhibition of human MEL-JUSO cell growth in a cell viability assay.

SMILES | IC50 [µM]
CC(C)CCN1c2nc(Nc3cc(F)c(O)c(F)c3)ncc2N(C)C(=O)C1C (stereo not drawn) | > 5

Test system: BPH-1;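 note: cell viability assay measuring growth inhibition of human BPH-1 cells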
Assay: cells
Type: functional, cell-based, Homo sapiens
Conditions: Homo sapiens, BPH-1
Description: SANGER: Inhibition of human BPH-1 cell growth in a cell viability assay.

SMILES | IC50 [µM]
CC(C)CCN1c2nc(Nc3cc(F)c(O)c(F)c3)ncc2N(C)C(=O)C1C (stereo not drawn) | 2.13

Test system: NCI-H2030;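 note: growth inhibition of human NCI-H2030 cells, read out by a cell viability assay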
Assay: cells
Type: functional, cell-based, Homo sapiens
Conditions: Homo sapiens, NCI-H2030
Description: SANGER: Inhibition of human NCI-H2030 cell growth in a cell viability assay.

SMILES | IC50 [µM]
CC(C)CCN1c2nc(Nc3cc(F)c(O)c(F)c3)ncc2N(C)C(=O)C1C (stereo not drawn) | > 5

Test system: EFO-21;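 note: growth inhibition of EFO-21 cells measured with a viability assay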
Assay: cells
Type: functional, cell-based, Homo sapiens
Conditions: Homo sapiens, EFO-21
Description: SANGER: Inhibition of human EFO-21 cell growth in a cell viability assay.

SMILES | IC50 [µM]
CC(C)CCN1c2nc(Nc3cc(F)c(O)c(F)c3)ncc2N(C)C(=O)C1C (stereo not drawn) | > 5

Test system: SW13;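 note: IC50 is inhibition of SW13 cell growth, read out with a cell viability assay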
Assay: cells
Type: functional, cell-based, Homo sapiens
Conditions: Homo sapiens, SW13
Description: SANGER: Inhibition of human SW13 cell growth in a cell viability assay.

SMILES | IC50 [µM]
CC(C)CCN1c2nc(Nc3cc(F)c(O)c(F)c3)ncc2N(C)C(=O)C1C (stereo not drawn) | > 5

Test system: NCI-H460;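 note: cell viability assay scoring growth inhibition of human NCI-H460 cells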
Assay: cells
Type: functional, cell-based, Homo sapiens
Conditions: Homo sapiens, NCI-H460
Description: SANGER: Inhibition of human NCI-H460 cell growth in a cell viability assay.

SMILES | IC50 [µM]
CC(C)CCN1c2nc(Nc3cc(F)c(O)c(F)c3)ncc2N(C)C(=O)C1C (stereo not drawn) | > 5

Test system: NCI-H727;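 note: growth inhibition of human NCI-H727 cells, read out with a cell viability assay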
Assay: cells
Type: functional, cell-based, Homo sapiens
Conditions: Homo sapiens, NCI-H727
Description: SANGER: Inhibition of human NCI-H727 cell growth in a cell viability assay.

SMILES | IC50 [µM]
CC(C)CCN1c2nc(Nc3cc(F)c(O)c(F)c3)ncc2N(C)C(=O)C1C (stereo not drawn) | > 5

Test system: HT1197
Assay: cells
Type: functional, cell-based, Homo sapiens, HT-1197
Conditions: Homo sapiens, HT1197
Description: SANGER: Inhibition of human HT-1197 cell growth in a cell viability assay.

SMILES | IC50 [µM]
CC(C)CCN1c2nc(Nc3cc(F)c(O)c(F)c3)ncc2N(C)C(=O)C1C (stereo not drawn) | > 5

Test system: SCC-9;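 note: Read-out is a cell viability assay, with values giving inhibition of cell growth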
Assay: cells
Type: functional, cell-based, Homo sapiens
Conditions: Homo sapiens, SCC-9
Description: SANGER: Inhibition of human SCC-9 cell growth in a cell viability assay.

SMILES | IC50 [µM]
CC(C)CCN1c2nc(Nc3cc(F)c(O)c(F)c3)ncc2N(C)C(=O)C1C (stereo not drawn) | > 5

Test system: C3A;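 note: growth inhibition of C3A human cells, quantified with a cell viability readout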
Assay: cells
Type: functional, cell-based, Homo sapiens
Conditions: Homo sapiens, C3A
Description: SANGER: Inhibition of human C3A cell growth in a cell viability assay.

SMILES | IC50 [µM]
CC(C)CCN1c2nc(Nc3cc(F)c(O)c(F)c3)ncc2N(C)C(=O)C1C (stereo not drawn) | > 5

Test system: HCC1954;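 note: growth inhibition of human HCC1954 cells, read out with a cell viability assay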
Assay: cells
Type: functional, cell-based, Homo sapiens
Conditions: Homo sapiens, HCC1954
Description: SANGER: Inhibition of human HCC1954 cell growth in a cell viability assay.

SMILES | IC50 [µM]
CC(C)CCN1c2nc(Nc3cc(F)c(O)c(F)c3)ncc2N(C)C(=O)C1C (stereo not drawn) | 4.26

Test system: ACHN;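 note: cell viability read-out used to gauge how strongly growth of human ACHN cells is suppressed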
Assay: cells
Type: functional, cell-based, Homo sapiens
Conditions: Homo sapiens, ACHN
Description: SANGER: Inhibition of human ACHN cell growth in a cell viability assay.

SMILES | IC50 [µM]
CC(C)CCN1c2nc(Nc3cc(F)c(O)c(F)c3)ncc2N(C)C(=O)C1C (stereo not drawn) | > 5

Test system: BHT-101
Assay: cells
Type: functional, cell-based, Homo sapiens
Conditions: Homo sapiens, BHT-101
Description: SANGER: Inhibition of human BHT-101 cell growth in a cell viability assay.

SMILES | IC50 [µM]
CC(C)CCN1c2nc(Nc3cc(F)c(O)c(F)c3)ncc2N(C)C(=O)C1C (stereo not drawn) | 4.11

Test system: MKN-7;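 note: growth inhibition of MKN-7 cells, read out with a cell viability assay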
Assay: cells
Type: functional, cell-based, Homo sapiens
Conditions: Homo sapiens, MKN-7
Description: SANGER: Inhibition of human MKN7 cell growth in a cell viability assay.

SMILES | IC50 [µM]
CC(C)CCN1c2nc(Nc3cc(F)c(O)c(F)c3)ncc2N(C)C(=O)C1C (stereo not drawn) | > 5

Test system: RERF-LC-MS;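 note: growth inhibition of human RERF-LC-MS cells, read out by a cell viability assay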
Assay: cells
Type: functional, cell-based, Homo sapiens
Conditions: Homo sapiens, RERF-LC-MS
Description: SANGER: Inhibition of human RERF-LC-MS cell growth in a cell viability assay.

SMILES | IC50 [µM]
CC(C)CCN1c2nc(Nc3cc(F)c(O)c(F)c3)ncc2N(C)C(=O)C1C (stereo not drawn) | > 5

Test system: MDA-MB-415
Assay: cells
Type: functional, cell-based, Homo sapiens
Conditions: Homo sapiens, MDA-MB-415

SMILES | IC50 [µM]
CC(C)CCN1c2nc(Nc3cc(F)c(O)c(F)c3)ncc2N(C)C(=O)C1C (stereo not drawn) | > 5

Test system: OAW-28;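 note: growth inhibition of OAW-28 cells, read out with a cell viability assay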
Assay: cells
Type: functional, cell-based, Homo sapiens
Conditions: Homo sapiens, OAW-28
Description: SANGER: Inhibition of human OAW-28 cell growth in a cell viability assay.

SMILES | IC50 [µM]
CC(C)CCN1c2nc(Nc3cc(F)c(O)c(F)c3)ncc2N(C)C(=O)C1C (stereo not drawn) | > 5
